Patent US11435345B2, “Detection and treatment of demyelinating diseases” (MATN SCIENTIFIC LIMITED, priority 2016, dated 2022)
“Also recorded” adds a separate entry of the source. No end group written: not given here.

Legend:
[1] = system: multiple sclerosis patients; conditions: MS patients; cited from earlier work
[2] = system: antibody that binds to the oligopeptide in serum samples; assay: ELISA assay of serum antibody that binds to biotinylated oligopeptides immobilised on streptavidin plates; assay type: binding, human; conditions: pH 7.4, female subjects, FIG. 2
Description: Six exemplary oligopeptides of the invention (each 17 amino-acids long, with biotinylated N-terminus) were used to prepare ELISA assays for studying antibody levels in patient samples. The oligopeptides were synthesised by K J Ross-Petersen ApS (Copenhagen, Denmark) and provided in lyophilized form. General serum diluent was purchased from Immunochemistry Technologies LLC (Minnesota, USA). Streptavidin coated 96-Well microplates were purchased from Eagle Biosciences (New Hampshire, USA) and the oligopeptides were applied to individual wells of the streptavidin plates as described below.
Sample preparation: Following obtaining informed consent, a 5 ml venous blood sample was withdrawn from each individual participating in this study. Samples were centrifuged for 10 minutes at 3000 RPM. Serum was then transferred into a clean plastic vial and the remainder was discarded. Serum was then diluted in general serum diluent (200 μl/mL), labelled accordingly and stored at −20° C. […]
ELISA protocol: Typical ELISA protocol was followed for quantifying antibodies present in serum. […] The plate was shaken for 5 seconds at 250 RPM and absorbance was measured using plate reader at wavelength 450 nm and 630 nm filter. Elisys Uno fully automated ELISA analyser (HUMAN company, Wiesbaden, Germany) was used to read the measurements. […]

[3] = system: chicks; assay: MS induction in chicks with antigens combined with pertussis and adjuvant; assay type: in vivo, chick; conditions: 1 mg antigen per 70 g body weight
Experimental: As a preliminary examination of our proposed treatment method, we induced MS in chicks by injecting antigens P, F, E and A (corresponding to SEQ ID NOs: 20, 21, 22 and 23) combined with pertussis and adjuvant. The dosage was 1 mg antigen per 70 g body weight. The main reason we chose this animal was to be able to easily visualize the walking impairment as they are bipedal like humans (compared to quadrupedal rodents). Initial symptoms were seen 12 days after antigen injection.

[4] = system: C57BL/6 mice; assay: Disease induction with antigen and adjuvant in combination with Pertussis toxin; assay type: in vivo, mouse; conditions: for severity of muscle weakness compared between antigens / grade of plaques compared to control animals: mice; for grade of plaques compared to control animals: mid brain section, antigen + adjuvant + pertussis, FIG. 8
Experimental: (§1) Male (n=16) and female (n=16) C57BL/6 mice, weighing between 16-18 g, were purchased from Royan institute (Tehran, Iran). MS induction study started when mice reached 6-8 weeks of age. Similar investigations were carried chick and guinea pig (data not shown). All procedures were performed aseptically and under supervision of Gandhi Hospital medical ethics committee (Tehran, Iran). Freund's complete adjuvant and Pertussis toxin purchased from Sigma-Aldrich (Dorset, UK).
At day 1 and day 2, 250 μg of antigen (oligopeptides of the invention) diluted in 150 μl of saline combined with 150 μl of adjuvant was injected intra-dermally into alcohol wiped back of each mouse. Following the injection of antigens, 400 ng Pertussis toxin diluted in 300 μl distilled water was injected intraperitoneally. Two control groups received either 150 μl distilled water in 150 μl of adjuvant or 400 ng Pertussis toxin diluted in 300 μl distilled water. The animals were kept in standard housing condition with appropriate temperature and humidity as well as adequate supplies of food and fresh water.
(§2) After scarifying mice by anaesthesia overdose at day 15 of injection, their brain was dissected out and fixed in 10% Formalin for histological analysis. The fixed samples were subsequently cut horizontally and processed to produce 5-micron thin paraffin sections, which then were stained with Haematoxylin and eosin (H&E), Glial fibrillary acidic protein (GFAP), CD-68 and Luxol fast blue (LFB). Various sections of the brain were then analyzed and imaged using a bright-field microscope (Optika B-383PL, Bergamo, Italy). Grade of plaque formation was defined as number of plaques measured in mid brain section as follow: […]
The effect of injected oligopeptide antigens of the invention on muscular function was tested by measuring animal fall time from inverted cage and ring. These tests follow the format of commonly used functional muscle evaluation tests in mice that use “wire hanging” behavioral tests wherein latency to fall after being suspended from a substrate is quantified to give a measure of muscular function.

[5] = system: C57BL/6 mice; assay: Disease induction with antigen and adjuvant without Pertussis toxin; assay type: in vivo, mouse; conditions: for grade of plaque formation: mid brain section, day 15, without Pertussis, FIG. 12
Experimental: as §1
C57BL/6 mice were injected with adjuvant and antigens (oligopeptides of the invention) at day 0 and 5. Control group received the injection of only adjuvant in distilled water.
as §2

[6] = fall from inverted cage and ring

Glatiramer acetate [Copaxone]
fewer relapses than patients taking placebo [1]: about 30%

MPRTQENAHSLERCWL [antigen H, MPRTQENAHSLERCWL]
differences between healthy female patients (HF) and female patients with MS (FMS) in the levels of antibody that bind to the oligopeptide [2]: significant for each exemplary oligopeptide besides H and S

RDSANIYHADSLKGRFT (Oligopeptide motif) [antigen A]
balance compared to controls [3]: lack of balance
time to initial symptoms after antigen injection [3]: 12 days
weight compared to controls [3]: Significant weight loss
severity of muscle weakness compared between antigens [4, 6]: less than those injected with oligopeptide antigen P; also recorded: considerably less effect than oligopeptide antigens E and F
grade of plaques compared to control animals [4]: significantly higher

RGSRGQHQAHSLERVCH (Oligopeptide motif) [antigen P]
balance compared to controls [3]: lack of balance
time to initial symptoms after antigen injection [3]: 12 days
weight compared to controls [3]: Significant weight loss
severity of muscle weakness compared between antigens [4, 6]: considerably less effect than oligopeptide antigens E and F

RHSDEHHHDDSLPHPQQ (Oligopeptide motif) [antigen E]
balance compared to controls [3]: lack of balance
time to initial symptoms after antigen injection [3]: 12 days
weight compared to controls [3]: Significant weight loss
muscle weakness in female mice ([4]; female mice, fall from inverted cage and ring): most pronounced muscle weakness
grade of plaques compared to control animals [4]: significantly higher
grade of plaque formation ([5]; female mice): 9 (24-27)
induction of MS in females ([5]; females): major inducer of MS in females

RLTLSPEQAHSLILQHL [antigen S, RLTLSPEQAHSLILQHL]
differences between healthy female patients (HF) and female patients with MS (FMS) in the levels of antibody that bind to the oligopeptide [2]: significant for each exemplary oligopeptide besides H and S

RVPGCAHHADSLYTYPV (Oligopeptide motif) [antigen F]
balance compared to controls [3]: lack of balance
time to initial symptoms after antigen injection [3]: 12 days
weight compared to controls [3]: Significant weight loss
muscle weakness in male mice ([4]; male mice, fall from inverted cage and ring): most pronounced muscle weakness
grade of plaques compared to control animals [4]: significantly higher
grade of plaque formation ([5]; male mice): 7 (18-21)
induction of MS in males ([5]; males): major inducer of MS in males
